Test results as given in patent US20150320773A1, “TREATMENT OF INFLAMMATION” (Vascular Biogenics Ltd., priority 2011, published 2015).

Columns and labels:
TLR2 = TLR2 (Homo sapiens, UniProt O60603); conditions: human monocytes; BO-VB201; anti-human TLR2 blocking antibody
Description: Human monocytes were incubated for 15 min with anti-human TLR2 blocking antibody. […] Streptavidin-APC (1:200) was used to detect binding.

[1] = target: TLR2:TLR1 dimer, TLR2:TLR6 dimer (Mus musculus, UniProt Q9QUN7); conditions: 1.7, 8.5 or 17 μM
RAW 264.7 macrophages = conditions: 0, 8.5 or 17 μM VB-201; streptavidin-APC
Text: Cells were washed and LPS binding was detected using streptavidin-APC.
CD14 is known to bind to lipopolysaccharide (LPS).

monocytes = test: Phagocytosis assay (whole blood), monocytes; format: cell-based, human; design: dose or concentration left out as unconfirmed; conditions: VB-201 doses of 5 or 10
Description: (§1) Phagocytosis assays were conducted using pHrodo™ Phagocytosis Particle Labeling Kit (Invitrogen) according to the manufacturer protocol. […] Then, pHrodo dye-labeled E. coli bacteria were mixed with the treated blood samples, in 20:1 ratio of pHrodo™ particles to phagocytosing cells and incubated for additional 15 minutes. Each sample was analyzed both at 4° C. (no phagocytosis, negative control) and 37° C. Following incubation, red blood cells were removed by lysis and the samples were washed 3 times with wash buffer. For gating on specific subpopulations, cells were labeled with anti-CD14-FITC (monocytes and granulocytes marker, BD Biosciences) and anti-CD66b-PerCP/Cy5.5 (granulocytes marker, BioLegend) antibodies. pHrodo fluorescence intensity was analyzed by FACS.
(§2) To this end, a phagocytosis assay was performed on whole blood from healthy donors, and the capacity of leukocyte subsets to phagocytose PE-labeled E. Coli particles was tested in presence or absence of VB-201. As a negative control, we used blood without bacterial particles, while a positive control included blood and labeled-bacterial particles incubated at 37° C. Cells were then stained with CD14 and CD66b antibodies to differentiate between monocytes and granulocytes and were analyzed by FACS.

[2] = test system: MCF-7 human breast cancer cells; test: Wound-healing 'scratch' assay; format: cell-based; conditions: data not shown
granulocytes = test: Phagocytosis assay (whole blood), granulocytes; format: cell-based, human; conditions: VB-201 doses of 5 or 10 µg/ml
Description: as §1, §2

[3] = test system: Human monocytes (CD14+ cells); test: In vitro cell migration (trans-well chemotaxis) assay of human monocytes; format: cell-based
Description: Following incubation, cells were loaded to the upper chamber and allowed to migrate for 3.5 hours towards 0.5% fetal bovine serum/RPMI-1640 medium supplemented with recombinant human MCP-1 and RANTES (50 ng/ml each).
In order to further ascertain the significance of ERK1/2 phosphorylation and MEK1/2 phosphorylation to monocyte chemotaxis, the effect of the RAF inhibitor GW5074, which reduces MEK and ERK phosphorylation, on monocyte chemotaxis was determined in a trans-well migration assay using a combination of MCP-1 ([…]) and RANTES (70 ng/ml) as attractant. Monocytes were pre-treated with 5 μM GW5074 for 30 minutes prior to seeding in the migration chamber.
For this purpose, monocytes from healthy donors were pre-incubated for 30 min with either solvent (0.005% ethanol/PBS), phosphatidylcholine (PC; 5 μg/ml), partially oxidized PAPC (24 h oxidation; 40 μg/ml) or PGPC (5 μg/ml), and allowed to migrate towards recombinant human MCP-1 (CCL2; ligand for CCR2) and RANTES (CCL5; ligand for CCR1, CCR3, CCR5, US28) as attractants (50 ng/ml each). […]

COX-1 = COX-1 (Homo sapiens, UniProt P23219); conditions: concentrations of up to 10 μM; data not shown
12-LO (12-lipoxygenase) = 12-LO (12-lipoxygenase) (Homo sapiens, UniProt P18054); conditions: concentrations of up to 10 μM; data not shown
[4] = Plasma concentration of VB-201 (Liquid Chromatography-Tandem Mass Spectrometry); format: in vivo, mouse; conditions: oral
Description: In this model, injection of thioglycollate to the peritoneal cavity induces a “sterile” inflammatory response recruiting peripheral monocytes to the peritoneum, where they differentiate into macrophages (Li, Y. M., et al., J. Immunol. Methods. 1997; 201:183-188). […] Upon sacrifice, the number and identity of the cells accumulating in the peritoneum was determined by FACS, and plasma samples were taken for quantification by Liquid Chromatography-Tandem Mass Spectrometry. Three days after thioglycollate injection 95% of the cells in the peritoneum were macrophages (F4/80 positive, GR-1 negative cells) (FIG. 26B).

THP-1 cells = test: AKT and ERK pathway activation in THP-1 cells, Western blot; conditions: 8.5 μM VB-201, 20 min
Description: THP-1 cells were incubated for 16 hrs in RPMI-1640 medium supplemented with 0.5% FBS and 1% Pen/Strep/Glutamine to reduce basal signaling readouts. […] Stimulation with 100 μM GTP-γ-s, an activator of G-proteins, was performed for 2, 5 or 15 minutes. Cells were harvested and analyzed by SDS-PAGE. […] Total ERK1/2 levels serve as loading control.
The THP1 or HEK293 cell lines were grown in medium supplemented with 0.5% FBS and 1% Pen/Strep/Glutamine. […] Cells were washed twice and harvested with lysis buffer and analyzed by SDS-PAGE. […] Alpha Tubulin levels serve as loading control.
THP-1 cells were incubated for 16 hrs in RPMI-1640 medium supplemented with 0.5% FBS and 1% Pen/Strep/Glutamine to reduce basal signaling readouts. […] Stimulation with 30 μg/ml of CRP, activator the CD32 and CD64 receptors, was performed for 2, 5 or 15 min. Cells were harvested and analyzed by SDS-PAGE. […] Total ERK1/2 levels serve as loading control.

human Neutrophils = test: Chemotaxis assay of human neutrophils; conditions: 5 μg/ml; towards LPS or 10% FBS/MCP-3
Description: Data are mean±SD from 3 different experiments performed in triplicates. […] Data are mean±SD from 4 different donors tested in triplicates.

TLR7 = TLR7 (Mus musculus, UniProt P58681); conditions: mouse BMDCs; R848; 1.7, 8.5 or 17 μM
human monocytes = test: ROS formation in human monocytes (DCF, FACS); format: cell-based; conditions: overnight; VB-201 10 μg/ml, PGPC 10 μg/ml, OxPAPC 100 μg/ml; relative to PBS
Description: Detection of ROS was performed through FACS quantification of the oxidation product dichlorodihydrofluorescein (DCF). Data are mean±SD from 3-4 experiments performed in duplicates. FIG. 23B is a histogram from a representative experiment showing DCF levels in treated cells.

HMG-CoA reductase = HMG-CoA reductase (Homo sapiens, UniProt P04035); conditions: concentrations of up to 10 μM; data not shown
Lp-PLA2 = Lp-PLA2 (Homo sapiens, UniProt Q13093); conditions: concentrations of up to 40 μM; data not shown
Chain of Lp-PLA2 (Q13093 22-441): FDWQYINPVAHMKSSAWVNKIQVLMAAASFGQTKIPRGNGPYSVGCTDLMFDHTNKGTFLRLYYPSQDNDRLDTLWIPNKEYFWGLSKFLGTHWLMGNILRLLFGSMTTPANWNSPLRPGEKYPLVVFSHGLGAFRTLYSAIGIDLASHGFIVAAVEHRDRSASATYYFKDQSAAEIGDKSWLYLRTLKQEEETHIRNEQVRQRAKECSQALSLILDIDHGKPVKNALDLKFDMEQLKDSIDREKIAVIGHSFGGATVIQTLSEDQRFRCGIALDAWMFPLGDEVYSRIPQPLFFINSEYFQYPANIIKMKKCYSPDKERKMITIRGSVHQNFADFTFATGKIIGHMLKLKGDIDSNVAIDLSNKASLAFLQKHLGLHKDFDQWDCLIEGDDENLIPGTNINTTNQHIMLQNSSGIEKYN

Chain of TLR2:TLR1 dimer, TLR2:TLR6 dimer (Q9QUN7 25-784): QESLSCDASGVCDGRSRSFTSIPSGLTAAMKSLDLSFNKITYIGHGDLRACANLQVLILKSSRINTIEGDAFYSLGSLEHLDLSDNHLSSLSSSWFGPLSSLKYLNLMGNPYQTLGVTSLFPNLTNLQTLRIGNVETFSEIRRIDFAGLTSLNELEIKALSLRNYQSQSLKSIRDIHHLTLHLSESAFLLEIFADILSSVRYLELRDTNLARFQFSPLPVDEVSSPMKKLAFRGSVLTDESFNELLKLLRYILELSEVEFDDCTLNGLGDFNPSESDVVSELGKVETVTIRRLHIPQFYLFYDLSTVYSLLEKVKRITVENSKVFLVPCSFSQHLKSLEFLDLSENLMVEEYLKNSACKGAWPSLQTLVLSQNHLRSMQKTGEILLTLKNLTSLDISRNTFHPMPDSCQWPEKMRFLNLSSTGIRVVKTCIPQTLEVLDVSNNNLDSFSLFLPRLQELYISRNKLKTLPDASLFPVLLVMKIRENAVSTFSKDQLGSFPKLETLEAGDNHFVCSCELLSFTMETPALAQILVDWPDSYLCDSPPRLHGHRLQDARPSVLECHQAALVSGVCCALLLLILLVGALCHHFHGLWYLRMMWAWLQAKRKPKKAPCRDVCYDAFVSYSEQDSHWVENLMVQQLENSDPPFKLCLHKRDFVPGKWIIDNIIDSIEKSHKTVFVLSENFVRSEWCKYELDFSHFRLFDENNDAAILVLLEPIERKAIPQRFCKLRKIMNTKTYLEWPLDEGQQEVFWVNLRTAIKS
Chain of TLR2 (O60603 21-784): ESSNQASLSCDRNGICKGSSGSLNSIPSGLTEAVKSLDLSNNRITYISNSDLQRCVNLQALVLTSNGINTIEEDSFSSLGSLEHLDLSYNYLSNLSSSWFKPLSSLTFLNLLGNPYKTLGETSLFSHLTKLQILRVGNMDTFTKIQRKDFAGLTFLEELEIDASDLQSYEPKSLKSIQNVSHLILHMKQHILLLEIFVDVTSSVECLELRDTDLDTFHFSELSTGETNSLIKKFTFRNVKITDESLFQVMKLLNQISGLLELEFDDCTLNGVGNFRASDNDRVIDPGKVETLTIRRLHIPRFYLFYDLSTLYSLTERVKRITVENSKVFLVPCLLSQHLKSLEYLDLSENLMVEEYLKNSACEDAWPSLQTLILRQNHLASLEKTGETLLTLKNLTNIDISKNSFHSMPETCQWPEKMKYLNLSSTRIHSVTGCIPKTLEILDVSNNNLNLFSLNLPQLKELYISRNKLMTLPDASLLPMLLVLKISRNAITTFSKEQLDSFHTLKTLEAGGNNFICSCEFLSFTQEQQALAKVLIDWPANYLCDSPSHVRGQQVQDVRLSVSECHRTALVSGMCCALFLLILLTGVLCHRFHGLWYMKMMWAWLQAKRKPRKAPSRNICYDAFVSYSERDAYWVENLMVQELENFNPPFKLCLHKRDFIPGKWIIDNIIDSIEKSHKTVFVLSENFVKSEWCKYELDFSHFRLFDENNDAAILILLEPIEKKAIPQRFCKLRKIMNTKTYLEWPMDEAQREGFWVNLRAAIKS
Chain of 12-LO (12-lipoxygenase) (P18054 whole entry, species assumed): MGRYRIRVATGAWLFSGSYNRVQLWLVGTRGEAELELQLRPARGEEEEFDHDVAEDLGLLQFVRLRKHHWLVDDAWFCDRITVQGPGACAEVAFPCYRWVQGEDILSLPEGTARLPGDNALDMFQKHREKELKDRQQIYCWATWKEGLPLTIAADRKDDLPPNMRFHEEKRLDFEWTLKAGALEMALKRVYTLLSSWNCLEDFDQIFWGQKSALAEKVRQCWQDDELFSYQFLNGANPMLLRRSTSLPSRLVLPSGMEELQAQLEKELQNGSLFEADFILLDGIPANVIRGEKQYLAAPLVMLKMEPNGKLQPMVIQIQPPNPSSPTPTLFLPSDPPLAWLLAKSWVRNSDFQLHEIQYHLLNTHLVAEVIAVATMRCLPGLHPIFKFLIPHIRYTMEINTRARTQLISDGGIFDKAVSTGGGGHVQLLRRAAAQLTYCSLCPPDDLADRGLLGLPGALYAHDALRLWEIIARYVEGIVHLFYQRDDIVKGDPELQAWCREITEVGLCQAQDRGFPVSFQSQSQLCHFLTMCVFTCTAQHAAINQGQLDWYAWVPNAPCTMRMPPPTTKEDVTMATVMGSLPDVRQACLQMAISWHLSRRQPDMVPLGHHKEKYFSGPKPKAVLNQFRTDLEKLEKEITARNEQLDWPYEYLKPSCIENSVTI
Chain of HMG-CoA reductase (P04035 whole entry, species assumed): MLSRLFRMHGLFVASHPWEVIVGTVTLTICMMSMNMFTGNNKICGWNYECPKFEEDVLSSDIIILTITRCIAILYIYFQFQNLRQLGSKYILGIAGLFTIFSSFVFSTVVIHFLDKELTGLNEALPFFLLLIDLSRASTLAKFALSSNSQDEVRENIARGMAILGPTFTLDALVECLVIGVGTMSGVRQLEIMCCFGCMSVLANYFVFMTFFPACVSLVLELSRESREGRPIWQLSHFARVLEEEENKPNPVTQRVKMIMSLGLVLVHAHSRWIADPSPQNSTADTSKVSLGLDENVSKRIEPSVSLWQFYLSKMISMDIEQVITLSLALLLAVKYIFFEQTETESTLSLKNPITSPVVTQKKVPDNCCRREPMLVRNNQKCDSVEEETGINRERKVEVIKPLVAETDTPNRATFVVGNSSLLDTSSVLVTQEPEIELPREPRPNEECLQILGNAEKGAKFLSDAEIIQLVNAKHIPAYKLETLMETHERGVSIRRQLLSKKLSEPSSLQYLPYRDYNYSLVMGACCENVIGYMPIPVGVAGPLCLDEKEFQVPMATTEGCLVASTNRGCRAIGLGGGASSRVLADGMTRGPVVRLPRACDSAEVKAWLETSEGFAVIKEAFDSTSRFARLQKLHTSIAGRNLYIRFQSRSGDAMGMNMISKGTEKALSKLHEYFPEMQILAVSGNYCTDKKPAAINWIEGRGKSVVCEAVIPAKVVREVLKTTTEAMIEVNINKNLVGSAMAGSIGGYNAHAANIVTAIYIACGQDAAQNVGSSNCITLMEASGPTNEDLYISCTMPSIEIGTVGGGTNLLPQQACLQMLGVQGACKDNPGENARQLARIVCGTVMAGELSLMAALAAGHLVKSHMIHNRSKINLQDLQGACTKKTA
Chain of COX-1 (P23219 24-599): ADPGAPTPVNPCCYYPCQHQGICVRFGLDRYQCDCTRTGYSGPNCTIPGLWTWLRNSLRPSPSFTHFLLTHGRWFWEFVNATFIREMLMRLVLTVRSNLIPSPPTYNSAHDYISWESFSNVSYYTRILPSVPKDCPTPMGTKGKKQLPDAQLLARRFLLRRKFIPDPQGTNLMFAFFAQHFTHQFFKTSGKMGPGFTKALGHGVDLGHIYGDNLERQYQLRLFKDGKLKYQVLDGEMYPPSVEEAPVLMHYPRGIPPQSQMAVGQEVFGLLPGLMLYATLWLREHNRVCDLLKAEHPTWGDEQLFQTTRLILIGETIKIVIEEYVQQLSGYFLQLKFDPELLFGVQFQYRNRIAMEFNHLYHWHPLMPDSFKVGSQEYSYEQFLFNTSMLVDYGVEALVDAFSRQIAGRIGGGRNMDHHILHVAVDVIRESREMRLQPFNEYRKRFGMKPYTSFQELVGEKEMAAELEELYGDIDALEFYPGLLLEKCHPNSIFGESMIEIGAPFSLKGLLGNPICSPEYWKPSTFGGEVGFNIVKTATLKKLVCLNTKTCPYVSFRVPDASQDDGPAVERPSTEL

CCCCCCCCCCCCCCCCOC[C@H](COP(=O)([O-])OCC[N+](C)(C)C)OCCCCC(=O)O [VB-201, (R)-1-hexadecyl-2-(4′-carboxyl)butyl-sn-glycero-3-phosphocholine]
binding to cell surface expressed TLR2 (TLR2): Binds Cell Surface Expressed TLR2
p38 phosphorylation following activation of dimers of TLR2 ([1]; mouse BMDCs, Pam3CSK4, PGN): inhibited p^38 phosphorylation in a dose-dependent manner
activation of p38, ERK1/2 and the NFκB pathway following activation of TLR2:TLR1 dimer ([1]; mouse peritoneal macrophages, Pam3CSK4): inhibited activation of p38, ERK1/2 and the NFκB pathway in a dose-dependent manner
binding of biotinylated LPS to macrophages (RAW 264.7 macrophages): inhibited binding of biotinylated LPS to macrophages in a dose dependent manner
monocyte phagocytosis capacity (monocytes): did not have any significant effect
cell migration in wound-healing scratch assay [2]: no effect on cell migration
granulocyte phagocytosis (granulocytes): no VB-201 effect was seen
C-reactive protein-induced chemotaxis of human monocytes ([3]; 8.5 μM VB-201, 30 min, 50 ug/ml CRP, 3.5 hours, p<0.01): inhibit chemotaxis induced by CRP
reduction of monocyte chemotaxis towards MCP-1 and RANTES (50 ng/ml each) ([3]; 30 min pre-incubation, PC 5 μg/ml, partially oxidized PAPC 40 μg/ml, PGPC 5 μg/ml, VB-201 5 μg/ml): profound inhibition of monocyte chemotaxis
reduction of monocyte migration, MCP-1 as chemoattractant ([3]; VB-201 5 μg/ml, MCP-1 50 ng/ml, compared to solvent control): approximately 80%
reduction of monocyte migration, MIP-1α as chemoattractant ([3]; VB-201 5 μg/ml, MIP-1α 50 ng/ml, compared to solvent control): ~68%
reduction of monocyte migration, RANTES as chemoattractant ([3]; VB-201 5 μg/ml, RANTES 100 ng/ml, compared to solvent control): ~72%
monocyte chemotaxis towards the compound (cell attractant in lower chamber) ([3]; data not shown): no monocyte chemotaxis towards VB-201 occurred
inhibition of monocyte migration towards HUVEC growth medium ([3]; dose of 5 μg/ml): about 60%
monocyte migration towards HUVEC growth medium ([3]; escalating doses): reduced the number of migrating cells in a dose-dependent fashion
inhibition of COX-1 (COX-1): No inhibition
inhibition of 12-LO (12-lipoxygenase) (12-LO (12-lipoxygenase)): No inhibition
VB-201 in mice plasma ([4]; 0.4 mg/kg): 0.8 ± 0.3 µmol/L
VB-201 plasma level ([4]; 4 mg/kg): 8.5 ± 1.5 µmol/L
phospho-AKT(Ser473) levels (THP-1 cells; 30 μg/ml CRP): reduction in phospho-ERK1/2 and phospho-AKT(Ser473) levels
phospho-ERK1/2 levels (THP-1 cells; 30 μg/ml CRP): reduction in phospho-ERK1/2 and phospho-AKT(Ser473) levels
phospho-AKT(Ser473) levels (THP-1 cells; 100 μM GTP-γ-s): reduction in phospho-ERK1/2 and phospho-AKT (Ser473) levels
phospho-ERK1/2 levels (THP-1 cells; 100 μM GTP-γ-s): reduction in phospho-ERK1/2 and phospho-AKT (Ser473) levels
EGF-induced ERK1/2 phosphorylation (THP-1 cells; EGF 200 ng/ml): inhibition of ERK1/2 phosphorylation in the THP-1 monocytic cell line
chemotaxis of human Neutrophils (human Neutrophils): no effect on chemotaxis
p38 phosphorylation following activation of TLR7 (TLR7): no apparent effect
ROS formation in human monocytes (human monocytes): no effect on ROS formation
inhibition of HMG-CoA reductase (HMG-CoA reductase): No inhibition
inhibition of Lp-PLA2 (Lp-PLA2): No inhibition
